In PMC13095408, “DBeQ derivative targets vacuolar protein sorting 4 functions in cancer cells and suppresses tumor growth in mice” (The Journal of Pharmacology and Experimental Therapeutics, 2025):
Values after ≈ are worked out from the molar mass of the structure shown.

Legend:
U2OS cells = test: Immunoblot analysis of VPS4- and VCP-mediated pathways (autophagy, ER stress, ERAD); type: cell-based
Protocol: Whole-cell lysates were prepared in radio-immunoprecipitation buffer (25 mM Tris-HCl, pH 8.0, 150 mM NaCl, 1 mM EDTA, 1% v/v IGEPAL CA-630, 0.5% w/v sodium deoxycholate, and 1% v/v SDS) containing protease (1:250) and phosphatase inhibitor cocktails (1:100) then resolved via SDS-PAGE and probed with the indicated antibodies. Signals were acquired with the Odyssey CLx (LI-COR) for fluorescence or Odyssey XF (LI-COR) for chemiluminescence detection and visualized in Image Studio version 6 (LI-COR).
VPS4 is essential for autophagy and loss of VPS4 function inhibits autophagic flux ([Takahashi et al, 2018]; [Zhen et al, 2019]). Meanwhile, VCP is required for endoplasmic reticulum-associated degradation (ERAD; [Rabinovich et al, 2002]) where VCP inhibition results in the accumulation of ubiquitinated proteins and induction of ER stress ([Weihl et al, 2006]; [Bastola et al, 2016]).

Thermodynamic solubility = type: physicochemical; conditions: FaSSIF-V2 buffer, thermodynamic from solid; In FaSSIF-V2, pH 6.5
[1] = Escalating dose MTD study; type: in vivo; conditions: daily doses increasing 50% each day from 5 mg/kg, B6 mice
Protocol: All animal studies were performed in accordance with the guidelines of the Institutional Animal Care and Use Committee at the Penn State College of Medicine (IACUC # PRAMS201145989). To determine the maximum tolerated dose (MTD) of 4-107, escalating and acute dose studies were performed. The escalating MTD study used an intra-animal design where each mouse received daily doses of 4-107 that increased 50% each day from a starting dose of 5 mg/kg. Six female C57BL/6J (B6) (The Jackson Laboratory; 000664) were administered 4-107 either orally via oral gavage or via intraperitoneal injection with 3 mice per group. The acute MTD study had groups of mice receive daily consistent doses of 4-107 i.p. Here, B6 mice were administered 4-107 at either 5 (n = 4; 2 males [M], 2 females [F]), 10 (n = 4; 2 M, 2 F), 15 (n = 5; all M), or 20 mg/kg (n = 5; all M). In both studies, 4-107 dissolved in DMSO was mixed into 30% propylene glycol, 5% Tween 80, and 65% of 5% dextrose in water (PTD [vehicle]) with a final DMSO concentration of ≤ 3%. […] BCS was determined by posture and prominence of skeletal features upon visual inspection and palpation, where BCS < 2 indicated a hunched posture and emaciation. […] The MTD was determined as the highest dose of 4-107 administered without mice reaching the toxicity endpoints.

[2] = tested on: GFP-CHMP4B- and mCherry-LGALS3-expressing U2OS cells; test: mCherry-LGALS3 accumulation, endolysosomal membrane integrity (HCM); type: cell-based; conditions: 2 μM 4-107, starved, 2 hours
Protocol: Live-cell fluorescence imaging and analysis were performed using the CellInsight CX7 LZR high-content screening platform with Onstage Incubator (Thermo Scientific; 37 °C, 5% CO2, 20% O2, 60% humidity). SM was acclimatized at 37 °C and 5% CO2 for at least 30 minutes prior to all experiments for pH equilibration. For cell-based VPS4i screen, U2OS cells stably expressing N-terminal GFP-tagged charged multivesicular body protein 4B (GFP-CHMP4B) were cultured in black clear-bottom 96-well plates (Corning; 3603) at a density of 6000 cells/well. Cells were stained with Hoechst 33342 (1:1000) for 15 minutes at 37 °C, rinsed with 1× Dulbecco's phosphate-buffered saline (DPBS), and treated with SM containing 0.1% DMSO or 1 μM test compounds. Plates were then scanned using the 20× objective for 1 hour with ≥100 cells/well across 6 fields/well. Fluorescence intensity of GFP-CHMP4B foci per cell for each compound was normalized to that of 4-107. For all other assays, the cells were cultured overnight in black glass-bottom 96-well plates (Cellvis; P96-1.5H-N) then stained, rinsed, and treated with SM containing the indicated compounds (0.1% DMSO or 0.1% DMSO/0.1% ethanol [vehicle] final). Plates were scanned using the 20× NA .70 objective at the indicated intervals with ≥ 300 cells/well across 3 fields/well. […]

9464D s.c. tumors = test: 9464D syngeneic mouse model of neuroblastoma; type: in vivo; conditions: 5 mg/kg/day, i.p.
Protocol: To establish a syngeneic tumor mouse model, 9464D cells were resuspended in 50% Matrigel Matrix in 1× PBS at a concentration of […] and a total of 0.1 mL of this mixture (1 × 10^6 cells) was subcutaneously injected into the flank of each of the 6 to 8-week-old B6 mice (n = 19; 12 M, 7 F). Fourteen days after engraftment, mice began daily intraperitoneal administration of either vehicle (n = 9; 6 M, 3 F) or 5 mg/kg 4-107 (n = 10; 6 M, 4 F). Mouse tumor volume was measured weekly, then every 1–3 days once vehicle-treated tumors reached 1000–2000 mm^3. Tumor volume was calculated as πLW^2/6 using length (L) and width (W) caliper measurements. Mouse body weight was measured daily. Humane endpoints were defined as tumor volume reaching 4000 mm^3 or mice reaching the aforementioned toxicity endpoints, at which point the affected mice were euthanized. The experimental endpoint was determined as the time when the majority of tumors from the control group reached 4000 mm^3.

[3] = 5 μM DBeQ, 0.6 μM CB-5083, 1 μM 4-107, complete media

## COc1cccc2c(NCc3ccccc3)nc(NCc3ccccc3)nc12 [Compound 4-107, N^2,N^4-dibenzyl-8-methoxyquinazoline-2,4-diamine]
U2OS cells; 0.6 μM CB-5083, 1 μM 4-107, complete media
  accumulation of K48-linked polyubiquitinated proteins: did not induce ER stress or the accumulation of polyubiquitinated proteins
U2OS cells; 5 μM 4-107, 4 hours, complete media
  VCP pathway (ubiquitinated proteins, ATF4, SQSTM1): VCP pathway perturbation
U2OS cells; [3]
  ER stress (HSPA5, ATF4): did not induce ER stress
  autophagy (SQSTM1, LC3-II): inhibited autophagy over time
Thermodynamic solubility
  solubility thermodynamic at 16 h: 17 µM (≈ 6.3 µg/mL)
[1]; i.p.
  doses exhibiting toxicity, intraperitoneal route: above 25 mg/kg
[1]; oral gavage, doses up to
  well tolerated dose, oral route: approximately 90 mg/kg
[2]
  mCherry-LGALS3 signals (endolysosomal membrane integrity): increase in mCherry-LGALS3 signals
9464D s.c. tumors; from day 14 after engraftment, B6 mice
  tumor growth: significantly reduced tumor growth
9464D s.c. tumors; tumor-bearing B6 mice
  mice that tolerated treatment: 7 of 10
